Reference: patent US20150216865A1, “METHODS OF TREATING A BRUTON'S TYROSINE KINASE DISEASE OR DISORDER” (Celgene Avilomics Research, Inc., priority 2012, published 2015)
“Also recorded” adds a separate entry of the source. Marks after values point to notes of the source that are not given here.

Legend:
[1] = system: PGPS 10S-induced arthritis in rats; assay: PGPS 10S-induced model of chronic arthritis; type: in vivo, rat
Description: PGPS 10S-Induced Model of Chronic Arthritis. Rats were injected intraperitoneal with […] of animal body weight, to induce arthritis. Left and right hind limb lateral ankle widths of each rat were measured three times each prior to PG-PS 10S administration and on day 5. The first inflammatory response peak for both right and left ankles of PG-PS rats was reached on day 4. Rats were assigned to one of five treatment groups. […] Another group was treated with 0.3 mg/kg QD dexamethasone on the 3rd day post first peak (day 7) through day 22.

Btk [2] = target: T1, Btk (Homo sapiens, UniProt Q06187); assay: Immunoblot of Btk signaling in α-IgM stimulated Ramos cells; type: cell-based
Description: (§1) Following incubation, cells were centrifuged and resuspended in 100 μL of serum-free RPMI and BCR was stimulated with addition of 5 μg/mL α-human IgM. […] Membranes were scanned on a LiCor Odyssey Scanner using infrared fluorescence detection.

[3] = system: collagen-induced arthritis Dba1 mouse model; assay: Established collagen induced arthritis model (clinical score, histopathology, body weight); type: in vivo
Description: Established Collagen Induced Arthritis Model: Experiments were carried out at Bolder Biopath, Boulder, Colo. All experiments were carried out in compliance with regulations of the Institutional Animal Care and Use Committee and were conducted in accordance with principles and procedures dictated by the highest standards of humane animal care. […] On study days 25-27, onset of arthritis occurred, and mice were randomized into treatment groups (10/treatment group, 4/group for normal). […] Randomization into each group was done after swelling was obviously established in at least one paw, and attempts were made to assure approximately equal mean scores across the groups at the time of enrollment. […] Treatment continued daily (QD at 24 h intervals) through arthritis day 14.

Btk [4] = target: T1, Btk; assay: Btk target site occupancy ELISA, Ramos cells; type: cell-based; details: one hour, read-out: EC90 of Btk occupancy (concentration required for 90% occupancy)
Description: (§2) Btk Target Site Occupancy ELISA: An ELISA method for the detection of free uninhibited Btk in mouse, rat, dog, monkey, and human lysates was developed at Celgene Avilomics Research and a validation of this method in human B cell lysate was performed by a CLIA Certified laboratory (Cambridge Biomedical Laboratories, Boston, Mass.) The parameters that were assessed included: accuracy, linearity, dilution, precision (intra and inter-assay), stability, reference range, freeze-thaw cycles, reportable range, specificity, sensitivity, and carryover. […] Standards and samples were transferred to a streptavidin-coated 96-well ELISA plate and mixed while shaking for 1 h at room temperature. […] After wash, goat α-mouse-HRP (1:5000 dilution in PBS+0.05% Tween-20+0.5% BSA) was added and incubated for 1 h at room temperature. The ELISA was developed with addition of tetramethyl benzidine (TMB) followed by Stop Solution and read at OD 450 nm.

[5] = Plasma level of compound in mice of the Btk resynthesis experiment; type: in vivo, mouse; details: single oral 50 mg/kg, n=6
Description: Btk Protein Resynthesis in Mice. […] At 4, 8, 16, 24, 48, 72, and 96 hours after treatment, spleens and serum were harvested (n=6 mice/timepoint). Spleens were homogenized and assayed on the covalent probe ELISA for Btk target site occupancy and compound concentration in serum was measured.

Btk [6] = target: T2, Btk (Mus musculus, UniProt P35991); assay: Btk protein resynthesis in mice (spleen covalent probe ELISA); type: in vivo
T2 construct: from tissue; host or cells: mouse spleen
Description: Spleen Homogenization: Spleens were harvested from mice, frozen immediately in liquid nitrogen and stored at −80° C. To generate spleen lysates, each spleen was sliced in half and lysed using a Precellys 24 Bead Homogenizer in 500 μL of BioRad Bio-Plex Lysis Buffer plus protease inhibitors. Supernatant was transferred to a fresh microfuge tube and stored frozen at −80° C. until analysis.
as §2
Btk Protein Resynthesis in Mice. […] Spleens were homogenized and assayed on the covalent probe ELISA for Btk target site occupancy and compound concentration in serum was measured.

naïve human B-cells = assay: B lymphocyte proliferation (3H-thymidine incorporation); type: cell-based; details: B-cell; α-human IgM stimulated
Description: B Lymphocyte Proliferation (^3H-Thymidine Incorporation): A suspension of resting purified naïve human B-cells isolated by negative selection (MACS reagent 130-091-150) in RPMI was prepared at 0.4-0.5×10^6 cells per mL. […] Experiments were performed in triplicate.

Btk [7] = target: T1, Btk; assay: Immunoblot of Btk kinase activity in human primary naïve B cells; type: cell-based; details: 10 nM
Description: as §1

Btk [8] = target: T1, Btk; assay: Btk target site occupancy ELISA, human primary naïve B cells; type: cell-based; details: 10 nM
Description: as §2

[9] = system: semi-established CIA Dba1 mice; assay: Semi-established collagen induced arthritis (CIA) model; type: in vivo, mouse; details: for disease incidence: study day 33
Description: Semi-Established Collagen Induced Arthritis (CIA) Arthritis Model. Experiments were carried out at Bolder Biopath, Boulder, Colo. All experiments were carried out in compliance with regulations of the Institutional Animal Care and Use Committee and were conducted in accordance with principles and procedures dictated by the highest standards of humane animal care. Dba1 mice were injected at the base of the tail with 150 μL of Freund's Complete Adjuvant (Sigma) containing bovine type II collagen (Elastin Products, Owensville, Mo.) (2 mg/ml) on day 0 and again on day 21. Mice were randomized into treatment groups on study day 21, and treatment was initiated. Treatment continued daily (3 mg/kg, 10 mg/kg or 30 mg/kg QD at 24 hour intervals) through day 33, and mice were terminated on day 33 (animals 1-6) or day 34 (animals 7-12). Onset of arthritis occurred between study days 21 and 34. Clinical scores were assessed for each of the paws on study days 21-34 using the following scoring system: 0=normal, 1=one hind or fore paw joint affected or minimal diffuse erythema and swelling, 2=two hind or fore paw joints affected or mild diffuse erythema and swelling, 3=three hind or fore paw joints affected or moderate diffuse erythema and swelling, 4=marked diffuse erythema and swelling or =four digit joints affected, 5=severe diffuse erythema and severe swelling entire paw, unable to flex digits. Spleens and plasma were harvested at necropsy (day 33 for animals 1-6 and day 34 for animals 7-12) and paws were removed and fixed in formalin for histopathological analysis.

Lyn = Lyn (Homo sapiens, UniProt P07948); assay: Biochemical kinase assay, Lyn (probe selectivity); details: read-out: IC50app Lyn
Syk = Syk (Homo sapiens, UniProt P43405); assay: Biochemical kinase assay, Syk (probe selectivity); details: read-out: IC50app Syk
EGFR = EGFR (Homo sapiens, UniProt P00533); assay: Biochemical kinase assay, EGFR (probe selectivity); details: read-out: IC50app EGFR
Btk [10] = target: T1, Btk; assay: Btk biochemical kinase assay; details: read-out: IC50apparent, Btk kinase activity
KC = assay: Inflammatory chemokine and cytokine analysis in CIA mice, KC; type: in vivo, mouse; details: dexamethasone group
Excerpt: (§3) Inflammatory Chemokine and Cytokine Analysis: At the termination of the CIA study, mice were sacrificed and blood was harvested via cardiac punch using EDTA as an anticoagulant. […] Levels of various mouse cytokines in plasma were quantified using Bioplex® Suspension Array System according to manufacturer's instruction (BioRad, mTNFa (171-G5023M), mIL-6 (171-G5007M), mKC (171-G5018M), mIFNg (171-G5017M), mIL-17 (Z60-00006Z2), mIL-1β (171-G5002M), mMCP-1 (171-G5019M).

IL-6 = assay: Inflammatory chemokine and cytokine analysis in CIA mice, IL-6; type: in vivo, mouse; details: dexamethasone group
Excerpt: as §3

TNF-a = assay: Inflammatory chemokine and cytokine analysis in CIA mice, TNF-a; type: in vivo, mouse; details: dexamethasone group
Description: Inflammatory Chemokine and Cytokine Analysis: At the termination of the CIA study, mice were sacrificed and blood was harvested via cardiac punch using EDTA as an anticoagulant. Following centrifugation, serum was diluted 1:4 with a mouse serum diluents kit (BioRad cat#171-305004). Levels of various mouse cytokines in plasma were quantified using Bioplex® Suspension Array System according to manufacturer's instruction (BioRad, mTNFa (171-G5023M), mIL-6 (171-G5007M), mKC (171-G5018M), mIFNg (171-G5017M), mIL-17 (Z60-00006Z2), mIL-1β (171-G5002M), mMCP-1 (171-G5019M).

T2 sequence (P35991 whole entry): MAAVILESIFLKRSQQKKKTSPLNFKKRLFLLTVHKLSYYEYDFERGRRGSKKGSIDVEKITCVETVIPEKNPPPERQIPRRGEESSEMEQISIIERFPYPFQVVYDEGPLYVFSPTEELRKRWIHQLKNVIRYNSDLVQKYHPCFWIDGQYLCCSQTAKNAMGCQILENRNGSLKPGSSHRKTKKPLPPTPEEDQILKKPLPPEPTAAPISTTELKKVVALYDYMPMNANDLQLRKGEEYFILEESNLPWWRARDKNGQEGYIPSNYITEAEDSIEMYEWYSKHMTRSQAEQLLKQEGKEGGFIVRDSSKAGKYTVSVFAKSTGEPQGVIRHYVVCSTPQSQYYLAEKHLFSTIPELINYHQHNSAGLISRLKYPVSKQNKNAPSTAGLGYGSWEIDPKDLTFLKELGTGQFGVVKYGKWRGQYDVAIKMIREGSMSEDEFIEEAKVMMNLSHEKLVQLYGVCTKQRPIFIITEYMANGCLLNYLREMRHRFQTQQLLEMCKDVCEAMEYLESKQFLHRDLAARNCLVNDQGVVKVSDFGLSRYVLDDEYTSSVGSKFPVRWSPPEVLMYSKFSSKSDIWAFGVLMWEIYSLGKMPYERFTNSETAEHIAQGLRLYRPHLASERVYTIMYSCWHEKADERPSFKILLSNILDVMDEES
T1 sequence (Q06187 whole entry): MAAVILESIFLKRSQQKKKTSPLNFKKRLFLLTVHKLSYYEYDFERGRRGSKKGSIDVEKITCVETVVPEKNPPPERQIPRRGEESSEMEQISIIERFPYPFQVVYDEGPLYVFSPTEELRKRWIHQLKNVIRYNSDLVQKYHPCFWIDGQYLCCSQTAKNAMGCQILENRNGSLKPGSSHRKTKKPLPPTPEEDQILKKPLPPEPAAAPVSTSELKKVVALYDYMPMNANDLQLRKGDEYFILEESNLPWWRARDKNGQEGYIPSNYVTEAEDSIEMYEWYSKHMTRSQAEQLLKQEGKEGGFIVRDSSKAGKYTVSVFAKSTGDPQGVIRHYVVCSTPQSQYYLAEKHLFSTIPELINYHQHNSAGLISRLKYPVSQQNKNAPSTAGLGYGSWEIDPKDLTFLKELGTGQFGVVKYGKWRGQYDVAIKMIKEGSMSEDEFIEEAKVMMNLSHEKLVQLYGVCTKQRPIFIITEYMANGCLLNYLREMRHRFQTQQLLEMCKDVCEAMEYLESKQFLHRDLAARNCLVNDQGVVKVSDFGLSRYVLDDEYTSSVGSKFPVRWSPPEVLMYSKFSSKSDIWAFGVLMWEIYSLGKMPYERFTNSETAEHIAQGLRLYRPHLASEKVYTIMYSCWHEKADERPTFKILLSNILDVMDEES
Chain of Lyn (P07948 whole entry): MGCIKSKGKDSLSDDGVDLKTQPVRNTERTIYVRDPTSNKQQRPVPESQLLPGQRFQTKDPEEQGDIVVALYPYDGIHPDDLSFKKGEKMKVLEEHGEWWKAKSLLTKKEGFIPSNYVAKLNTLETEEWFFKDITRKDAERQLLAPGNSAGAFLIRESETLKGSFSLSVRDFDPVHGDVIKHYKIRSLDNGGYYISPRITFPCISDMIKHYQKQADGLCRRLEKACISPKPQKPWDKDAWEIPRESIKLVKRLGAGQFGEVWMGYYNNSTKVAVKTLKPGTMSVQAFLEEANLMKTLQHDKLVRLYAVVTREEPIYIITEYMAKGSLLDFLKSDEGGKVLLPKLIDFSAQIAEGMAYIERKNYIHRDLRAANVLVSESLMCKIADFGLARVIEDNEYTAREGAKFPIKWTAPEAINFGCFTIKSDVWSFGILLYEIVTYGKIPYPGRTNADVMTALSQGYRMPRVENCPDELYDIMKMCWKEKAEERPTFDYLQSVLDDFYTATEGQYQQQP
Chain of EGFR (P00533 25-1210): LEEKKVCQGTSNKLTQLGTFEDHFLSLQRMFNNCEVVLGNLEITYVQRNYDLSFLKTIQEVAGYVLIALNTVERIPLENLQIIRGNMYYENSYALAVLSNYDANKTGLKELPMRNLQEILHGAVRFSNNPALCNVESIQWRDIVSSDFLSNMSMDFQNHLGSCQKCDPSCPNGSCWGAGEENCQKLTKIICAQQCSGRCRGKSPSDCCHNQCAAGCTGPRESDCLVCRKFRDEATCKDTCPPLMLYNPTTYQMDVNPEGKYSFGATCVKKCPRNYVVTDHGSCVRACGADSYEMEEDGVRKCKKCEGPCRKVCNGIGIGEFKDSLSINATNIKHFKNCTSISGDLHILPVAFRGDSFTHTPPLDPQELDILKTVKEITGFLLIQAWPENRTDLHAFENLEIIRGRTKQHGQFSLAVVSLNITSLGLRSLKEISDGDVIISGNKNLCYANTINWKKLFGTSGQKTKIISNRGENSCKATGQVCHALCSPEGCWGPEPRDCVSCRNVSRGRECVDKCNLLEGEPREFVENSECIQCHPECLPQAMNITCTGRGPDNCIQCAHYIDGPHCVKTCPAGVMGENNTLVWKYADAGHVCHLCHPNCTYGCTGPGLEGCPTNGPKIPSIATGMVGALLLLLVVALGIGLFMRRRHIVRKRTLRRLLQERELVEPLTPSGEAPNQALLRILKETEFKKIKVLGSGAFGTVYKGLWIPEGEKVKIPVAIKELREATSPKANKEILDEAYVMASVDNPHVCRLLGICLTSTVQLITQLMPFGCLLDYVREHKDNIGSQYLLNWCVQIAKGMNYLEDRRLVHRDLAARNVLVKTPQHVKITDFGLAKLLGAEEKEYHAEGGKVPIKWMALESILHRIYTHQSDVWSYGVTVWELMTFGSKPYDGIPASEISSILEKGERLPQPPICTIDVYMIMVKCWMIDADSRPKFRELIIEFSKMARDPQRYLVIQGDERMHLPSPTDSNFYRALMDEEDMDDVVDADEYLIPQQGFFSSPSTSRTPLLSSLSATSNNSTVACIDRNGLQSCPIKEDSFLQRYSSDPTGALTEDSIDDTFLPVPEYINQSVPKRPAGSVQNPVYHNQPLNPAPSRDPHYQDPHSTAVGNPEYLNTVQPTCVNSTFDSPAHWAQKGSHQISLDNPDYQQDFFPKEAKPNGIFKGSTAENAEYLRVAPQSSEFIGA

With `C=CC(=O)Nc1cccc(Nc2nc(Nc3ccc(OCCOC)cc3)ncc2F)c1` [Compound 1, N-(3-(5-fluoro-2-(4-(2-methoxyethoxyl)phenylamino)pyrimidin-4-ylamino)phenyl)acrylamide] as the compound, how does the “spleen enlargement vs vehicle” value ([1]; 10 mg/kg QD, 30 mg/kg QD and 30 mg/kg QOD) read?
The value was “significantly prevented spleen enlargement”.

What about the “PGPS 10S-induced arthritis” value ([1]; 3, 10, 30 mg/kg QD, 30 mg/kg QOD) of the same compound?
The value was “inhibited PGPS 10S-induced arthritis in a dose-dependent manner”.

And the “right and left lateral ankle width vs diseased group” value ([1]; PGPS rats, day 7 through day 22)?
The value was “significantly lower”.

What about the “concentration at which 90% of Btk activity was inhibited” value (Btk [2]) of the same compound?
Its value is 35 nM.

What about the “activation of the downstream kinase Erk” value (Btk [2]; anti-IgM) of the same compound?
The value was “potently inhibited”.

And the “phosphorylation of Btk on Tyr551” value (Btk [2]; anti-IgM)?
The value was “no effect”.

What about the “phosphorylation of the Btk substrate PLCγ2” value (Btk [2]; anti-IgM) of the same compound?
Its value is “potently inhibited”.

And the “inhibition of histopathologic signs of disease (six joints)” value ([3]; 10 mg/kg)?
Its value is 87%.

What about the EC90 (Btk [4]) of the same compound?
The EC90 was 39 nM.

What about the “compound concentration in plasma at the 8 hour timepoint” value [5] of the same compound?
Its value is “undetectable in 5/6 mice; also recorded: absent in 5 of 6 animals”.

And the “persistence of action on Btk (occupancy) after circulating compound has disappeared” value (Btk [6]; mice, single oral 50 mg/kg)?
The value was greater than 12 h.

What about the “new Btk protein, % of pre-dose Btk protein levels” value (Btk [6]; mouse spleen, 24 hours after single oral 50 mg/kg) of the same compound?
The value was 43%.

And the “new Btk protein, % of pre-dose Btk protein levels” value (Btk [6]; mouse spleen, 48 hours after single oral 50 mg/kg)?
The value was 71%.

What about the “time for Btk protein to recover to 50% pre-dose levels” value (Btk [6]; mouse spleen, single oral 50 mg/kg) of the same compound?
The value was 24 to 48 h.

What about the EC50 (naïve human B-cells) of the same compound?
Its EC50 is 3 nM.

And the inhibition at 0.01 µM (Btk [7])?
Its inhibition at 0.01 µM is 42%.

What about the receptor occupancy at 0.01 µM (Btk [8]) of the same compound?
Its receptor occupancy at 0.01 µM is 37%.

What about the disease incidence ([9]; 3 mg/kg QD) of the same compound?
Its disease incidence is 50%.

What about the disease incidence ([9]; 10 mg/kg QD) of the same compound?
The disease incidence was 17%.

What about the disease incidence ([9]; 30 mg/kg QD) of the same compound?
Its disease incidence is 8%.

And the “body weight loss associated with severity of disease” value ([9]; all three dose levels)?
The value was “prevented the loss in body weight”.

With `C=CC(=O)Nc1cccc(Nc2nc(Nc3cccc(OCCCNC(=O)CCCC(=O)NCCCOCCOCCOCCCNC(=O)CCCC[C@@H]4SC[C@@H]5NC(=O)N[C@@H]54)c3)ncc2C)c1` [Compound 2] as the compound, how does the IC50 (Lyn) read?
Its IC50 is greater than 3500 nM.

And the IC50 (Syk)?
The IC50 was greater than 1000 nM.

What about the IC50 (EGFR) of the same compound?
The IC50 was greater than 25 nM.

And the IC50 (Btk [10])?
Its IC50 is 0.5 nM.

With `C[C@@H]1C[C@H]2[C@@H]3CCC4=CC(=O)C=C[C@]4(C)[C@@]3(F)[C@@H](O)C[C@]2(C)[C@@]1(O)C(=O)CO` [dexamethasone, reference compound] as the compound, how does the “inhibition of histopathologic signs of disease (six joints)” value ([3]; dexamethasone positive control (0.2 mg/kg)) read?
The value was 82%.

And the KC mean (KC)?
The KC mean was 52.9 pg/mL.

What about the IL-6 mean (IL-6) of the same compound?
Its IL-6 mean is 9.8* pg/mL.

What about the TNF-a mean (TNF-a) of the same compound?
The TNF-a mean was 131.0 pg/mL.

What about the disease incidence ([9]; dexamethasone group) of the same compound?
Its disease incidence is 0%.
